{"source": "patent US20090055945A1", "about": "“Method for Producing Nuclear-Transplanted Egg” (priority 2005, published 2009)", "key": {"[1]": {"tested_on": "nuclear transfer oocytes (nuclei from cumulus cells in enucleated oocytes)", "assay": "Expanded blastocyst formation of nuclear transfer oocytes (cumulus cell nuclei)", "assay_type": "cell-based, mouse", "protocol": "Production of cloned mice including production of nuclear transfer embryos was carried out according to the method as described in Non-patent Document 5. Briefly, pregnant mare serum gonadotrophin (PMSG) was first administered to 8-weeks-old female B6D2F1 (C57BL/6 XDBA/2) mice (Japan SLC) for superovulation treatment. Human choriogonadotropin (hCG) was administered after 48 hours. Oocytes were collected after 16 hours. Nuclei were removed from the collected unfertilized oocytes in the presence of 5 μg/ml of cytochalasin B using a micromanipulator (enucleation).\nNext, cell membranes of cumulus cells from a B6D2F1 mouse as donor somatic cells suspended in a 1.2% polyvinylpyrrolidone (PVP) solution were destroyed using an injection pipette, and the nuclei were injected into the enucleated oocytes using a micromanipulator (nuclear transfer). A piezo drive apparatus (Prime Tech) was used to generate piezo-pulses for penetration of zona pellucida or cell membranes which is required for injection of nuclei.\nThe thus obtained nuclear transfer oocytes were cultured in a CO2 incubator at 37° C. for 30 minutes to 1 hour. The oocytes were then transferred to an oocyte activation solution (Ca^2+-free CZB medium supplemented with 5 mM strontium chloride (SrCl2) and 5 μg/ml of cytochalasin B (Non-patent Document 10)) containing 0.5, 5, 50 or 500 nM trichostatin A (hereinafter referred to as TSA) to artificially activate the oocytes and initiate the development. Activation of oocytes was confirmed 6 hours after the initiation of activation using pronuclei formation as an index. Activated nuclear transfer oocytes were transferred to KSOM medium (Specialty Media) containing TSA at the same concentration, and cultured for further 14 hours (for 20 hours after the initiation of activation) in the medium. For a control, dimethyl sulfoxide (DMSO), which was used for dissolving TSA, was used in place of TSA to produce the same concentration.\nThen, the nuclear transfer embryos at the 2-cell stage were cultured in KSOM medium without TSA until 96 hours after the initiation of activation, and development into expanded blastocysts was observed. The development into expanded blastocyst was confirmed by culturing for 96 hours after the initiation of activation and then observing under a microscope one in which the volume of embryo was increased to result in expansion of the blastocyst and thinning of zona pellucida among blastocysts having blastocoels. 80 or more embryos were examined in each of the experimental groups of the respective concentrations.\nThe ratio of the developed blastocysts to the number of nuclear transfer oocytes used (blastocyst formation rate (%)) was determined. The ratio of the developed expanded blastocysts to the number of oocytes that initiated cleavage (i.e., developed into the 2-cell stage) among the reconstructed nuclear transfer oocytes (blastocyst formation rate (%)) was determined.\nNuclear transfer oocytes were produced by injecting nuclei from cumulus cells into enucleated oocytes according to the method as described in Example 1, cultured in KSOM medium containing TSA at a concentration of 5 nM for various periods of time (for 0, 24, 48 or 72 hour(s) from the initiation of activation), and then cultured in KSOM medium without TSA until 96 hours after the initiation of activation. Then, development into expanded blastocysts was observed and the blastocyst formation rate was determined. […]"}, "[2]": {"tested_on": "oocytes injected with mature sperm (ICSI)", "assay": "Paternal genome DNA methylation, mature sperm injection (ICSI)", "assay_type": "cell-based, mouse", "conditions": "500 nM TSA, 20 hours", "protocol": "The oocytes injected with the nuclear domains of round spermatids obtained by ROSI were cultured for 20 hours in the presence of 20 ng/ml of demecolcine in a medium containing 10 μM 5-azacytidine (5-aza) or 500 nM TSA as an anti-methylation agent. Similarly, injection of mature sperms was carried out (ICSI (intracytoplasmic sperm injection)). Specifically, heads of sperms were separated from the tails by applying pulses to the head-tail junctions by means of a piezo-driven pipette (PrimeTech), and injected into oocytes. The oocytes were not subjected to activation in this case. […]\nFor quantitative analysis of pronuclear DNA methylation levels, fluorescence images were subjected to densitometric analysis using the program Image-J from the National Institute of Health (http://rsb.info.nih.gov/ij/). For each pronucleus, the relative intensity of methylation of the paternal genome was calculated as a percentage of the fluorescence intensity of the maternal genome. In Table 3, data with (b) and without (a) anti-methylation agent were statistically analyzed by Scheffe tests for multiple mean comparisons using the statistical program SPSS version 12.0 (SPSS Inc.). […]"}}}
{"smiles": "CC(/C=C/C(=O)NO)=C\\[C@@H](C)C(=O)c1ccc(N(C)C)cc1", "note": "[TSA, trichostatin A]", "values": [{"measurement": "blastocyst development rate compared with the case without TSA", "setting": "[1]; TSA 5 nM for 24 or 48 hours from initiation of activation, FIG. 4", "result": "increased"}, {"measurement": "blastocyst development rate among treatment periods", "setting": "[1]; TSA 5 nM for 10 hours after initiation of activation, FIG. 5", "result": "highest"}, {"measurement": "increase in blastocyst development rate", "setting": "[1]; TSA 5 nM for 24 hours from initiation of activation", "result": "about 4 fold"}, {"measurement": "development rate compared with the case without TSA", "setting": "[1]; TSA 5 nM for 72 hours from initiation of activation", "result": "reduced"}, {"measurement": "blastocyst formation rate compared with the case without TSA", "setting": "[1]; TSA 5, 50 or 500 nM, 20 hours after initiation of activation, observed at 96 hours, FIG. 2", "result": "increased"}, {"measurement": "Ratio of methylation level of paternal genome to maternal genome (%)", "setting": "[2]", "result": "8.2^b %"}]}
